# Legend:
# [1] = Individual predicted steady‐state exposures; format: in vivo, human; settings: for AUC / Cmax: human, plasma; for AUC: AUCss,0–24 geometric mean (CV)
# [2] = Final avibactam PopPK model; format: in vivo, human; settings: for clearance: human, plasma, intravenous
# [3] = tested on: organic anion transporter 1 (OAT1); settings: in vitro; cited from earlier work
# [4] = tested on: ceftazidime‐resistant Enterobacteriaceae; settings: cited from earlier work
# [5] = taken to be; ref not given; cited from earlier work
# [6] = tested on: ceftazidime‐resistant P. aeruginosa; settings: thigh and lung infection; cited from earlier work
# OAT3 = settings: in vitro; cited from earlier work
# [7] = non‐Chinese, non‐Japanese Asians vs other racial origins
compound,measurement,setting,value
"NC(=O)[C@@H]1CC[C@@H]2CN1C(=O)N2OS(=O)(=O)O [Avibactam, avibactam]",AUC,[1]; Age (years) 18–65,131 µg·h/mL
same,AUC,[1]; Age (years) > 65–75,156 µg·h/mL
same,AUC,[1]; Age (years) > 75–89,180 µg·h/mL
same,AUC,[1]; Asian population: China (only),153 µg·h/mL
same,AUC,[1]; Asian population: Japan,164 µg·h/mL
same,AUC,[1]; Baseline WBC count Missing,147 µg·h/mL
same,AUC,[1]; Concomitant use of OAT1/OAT3 inhibitor(s): No,142 µg·h/mL
same,AUC,[1]; Concomitant use of OAT1/OAT3 inhibitor(s): Yes,150 µg·h/mL
same,AUC,[1]; Fever at baseline: Missing,132 µg·h/mL
same,AUC,[1]; Fever at baseline: No,146 µg·h/mL
same,AUC,[1]; Fever at baseline: Yes,134 µg·h/mL
same,AUC,[1]; Obesity I (29.9 ≤ BMI < 34.9 kg/m^2),136 µg·h/mL
same,AUC,[1]; Obesity II (34.9 ≤ BMI < 39.9 kg/m^2),141 µg·h/mL
same,AUC,[1]; Obesity III (BMI ≥ 39.9 kg/m^2),115 µg·h/mL
same,AUC,[1]; Obesity: Missing,172 µg·h/mL
same,AUC,[1]; Obesity: Normal,144 µg·h/mL
same,AUC,[1]; Race: Asian (non‐Chinese; non‐Japanese),166 µg·h/mL
same,AUC,[1]; Race: Chinese and Taiwanese,151 µg·h/mL
same,AUC,[1]; Race: Japanese,164 µg·h/mL
same,AUC,[1]; Race: White/other,135 µg·h/mL
same,Cmax,"[1]; C max,ss geometric mean (CV), Age (years) 18–65",12500 ng/mL
same,Cmax,"[1]; C max,ss geometric mean (CV), Age (years) > 65–75",13200 ng/mL
same,Cmax,"[1]; C max,ss geometric mean (CV), Age (years) > 75–89",14000 ng/mL
same,Cmax,"[1]; C max,ss geometric mean (CV), Asian population: China (only)",14900 ng/mL
same,Cmax,"[1]; C max,ss geometric mean (CV), Asian population: Japan",16100 ng/mL
same,Cmax,"[1]; C max,ss geometric mean (CV), Asian population: Korea",13000 ng/mL
same,Cmax,"[1]; C max,ss geometric mean (CV), Concomitant use of OAT1/OAT3 inhibitor(s): No",12800 ng/mL
same,Cmax,"[1]; C max,ss geometric mean (CV), Concomitant use of OAT1/OAT3 inhibitor(s): Yes",13700 ng/mL
same,Cmax,"[1]; C max,ss geometric mean (CV), Fever at baseline: Missing",11800 ng/mL
same,Cmax,"[1]; C max,ss geometric mean (CV), Fever at baseline: No",12900 ng/mL
same,Cmax,"[1]; C max,ss geometric mean (CV), Fever at baseline: Yes",12200 ng/mL
same,Cmax,"[1]; C max,ss geometric mean (CV), Obesity I (29.9 ≤ BMI < 34.9 kg/m^2)",12000 ng/mL
same,Cmax,"[1]; C max,ss geometric mean (CV), Obesity II (34.9 ≤ BMI < 39.9 kg/m^2)",13200 ng/mL
same,Cmax,"[1]; C max,ss geometric mean (CV), Obesity III (BMI ≥ 39.9 kg/m^2)",9700 ng/mL
same,Cmax,"[1]; C max,ss geometric mean (CV), Obesity: Missing",14200 ng/mL
same,Cmax,"[1]; C max,ss geometric mean (CV), Obesity: Normal",13000 ng/mL
same,Cmax,"[1]; C max,ss geometric mean (CV), Race: Asian (non‐Chinese; non‐Japanese)",14900 ng/mL
same,Cmax,"[1]; C max,ss geometric mean (CV), Race: Chinese and Taiwanese",14700 ng/mL
same,Cmax,"[1]; C max,ss geometric mean (CV), Race: Japanese",16100 ng/mL
same,Cmax,"[1]; C max,ss geometric mean (CV), Race: White/other",12000 ng/mL
same,Cmax,[1]; intravenous,12700 ng/mL
same,AUC,"[1]; intravenous, 187.5 mg, Day 3 CrCL 8–15 mL/min (750‐187.5 mg q24 h)",86.3 µg·h/mL
same,Cmax,"[1]; intravenous, 187.5 mg, C max,ss geometric mean (CV), Day 3 CrCL 8–15 mL/min (750‐187.5 mg q24 h)",6300 ng/mL
same,AUC,"[1]; intravenous, 500 mg, Day 3 CrCL > 150–180 mL/min (2000‐500 mg q8 h)",103 µg·h/mL
same,Cmax,"[1]; intravenous, 500 mg, C max,ss geometric mean (CV), Day 3 CrCL > 150–180 mL/min (2000‐500 mg q8 h)",9900 ng/mL
same,AUC,"[1]; intravenous, Asian population: Korea",144 µg·h/mL
same,AUC,"[1]; intravenous, Asian population: Taiwan",115 µg·h/mL
same,AUC,"[1]; intravenous, Asian population: Vietnam",146 µg·h/mL
same,AUC,"[1]; intravenous, Bacteremia at baseline: No",141 µg·h/mL
same,AUC,"[1]; intravenous, Bacteremia at baseline: Yes",161 µg·h/mL
same,AUC,"[1]; intravenous, Baseline APACHE II score > 10",170 µg·h/mL
same,AUC,"[1]; intravenous, Baseline APACHE II score Missing",138 µg·h/mL
same,AUC,"[1]; intravenous, Baseline APACHE II score ≤ 10",131 µg·h/mL
same,AUC,"[1]; intravenous, Baseline WBC count (cells/μL) > 12,000",136 µg·h/mL
same,AUC,"[1]; intravenous, Baseline WBC count (cells/μL) ≤ 12,000",145 µg·h/mL
same,AUC,"[1]; intravenous, Patient population: NP",169 µg·h/mL
same,AUC,"[1]; intravenous, Patient population: Non‐VAP",183 µg·h/mL
same,AUC,"[1]; intravenous, Patient population: VAP",146 µg·h/mL
same,AUC,"[1]; intravenous, Patient population: cIAI",132 µg·h/mL
same,AUC,"[1]; intravenous, Patient population: cUTI",138 µg·h/mL
same,AUC,"[1]; intravenous, SIRS at baseline: Missing",129 µg·h/mL
same,AUC,"[1]; intravenous, SIRS at baseline: No",143 µg·h/mL
same,AUC,"[1]; intravenous, SIRS at baseline: Yes",142 µg·h/mL
same,Cmax,"[1]; intravenous, C max,ss geometric mean (CV), Asian population: Taiwan",10200 ng/mL
same,Cmax,"[1]; intravenous, C max,ss geometric mean (CV), Asian population: Vietnam",14600 ng/mL
same,Cmax,"[1]; intravenous, C max,ss geometric mean (CV), Bacteremia at baseline: No",12600 ng/mL
same,Cmax,"[1]; intravenous, C max,ss geometric mean (CV), Bacteremia at baseline: Yes",14200 ng/mL
same,Cmax,"[1]; intravenous, C max,ss geometric mean (CV), Baseline APACHE II score > 10",14300 ng/mL
same,Cmax,"[1]; intravenous, C max,ss geometric mean (CV), Baseline APACHE II score Missing",12100 ng/mL
same,Cmax,"[1]; intravenous, C max,ss geometric mean (CV), Baseline WBC count (cells/μL) > 12,000",12500 ng/mL
same,Cmax,"[1]; intravenous, C max,ss geometric mean (CV), Baseline WBC count (cells/μL) ≤ 12,000",12800 ng/mL
same,Cmax,"[1]; intravenous, C max,ss geometric mean (CV), Patient population: NP",14200 ng/mL
same,Cmax,"[1]; intravenous, C max,ss geometric mean (CV), Patient population: Non‐VAP",15500 ng/mL
same,Cmax,"[1]; intravenous, C max,ss geometric mean (CV), Patient population: VAP",12000 ng/mL
same,Cmax,"[1]; intravenous, C max,ss geometric mean (CV), Patient population: cIAI",12800 ng/mL
same,Cmax,"[1]; intravenous, C max,ss geometric mean (CV), Patient population: cUTI",12100 ng/mL
same,Cmax,"[1]; intravenous, C max,ss geometric mean (CV), SIRS at baseline: Missing",12100 ng/mL
same,Cmax,"[1]; intravenous, C max,ss geometric mean (CV), SIRS at baseline: No",12800 ng/mL
same,Cmax,"[1]; intravenous, C max,ss geometric mean (CV), SIRS at baseline: Yes",12600 ng/mL
same,difference in steady‐state exposure vs. healthy volunteers,[1]; most patient subgroups,≤ 20%
same,"lower C max,ss",[1]; patients with VAP vs non‐VAP patients,~ 20%
same,lower V c,[2]; 10th percentile of body weight (51 kg) vs median weight (70 kg),29%
same,higher V c,[2]; 90th percentile of body weight (95 kg) vs median weight (70 kg),39%
same,decrease in CL,[2]; APACHE II score > 10,19.7%
same,increase in CL for an increase of 100 mL/min in CrCL over 80 mL/min,[2]; CrCL ≥ 80 mL/min,27.9%
same,clearance,"[2]; CL, patients with ESRD, off dialysis",1.13 mL/min
same,clearance,"[2]; CL, patients with ESRD, on‐dialysis",347 mL/min
same,clearance,"[2]; θ1: CL, typical value",170 mL/min
same,clearance,[2]; θ6: CL estimate for patients on dialysis,347 mL/min
same,"θ9: Population effect on V c (cIAI, phase II), V c*(1 + θ9)",[2]; in vivo,1.92
same,"θ11: Population effect on V c (cUTI), V c*(1 + θ11)",[2]; in vivo,0.434
same,"θ12: Population effect on V c (cIAI, phase III, NP), V c*(1 + θ11)",[2]; in vivo,0.329
same,θ14: WT on V c (WT/70.0)^θ14,[2]; in vivo,1.08
same,"θ 28: NPv on V c,V c*(1 + θ28)",[2]; in vivo,0.175
same,increase in AUC,[2]; [7],9.5%
same,lower CL,[2]; [7],8.65%
same,higher V c,[2]; patients with NPv vs non‐NPv patients,17.5%
same,higher V c,[2]; patients with cUTI vs healthy subjects,43.4%
same,higher V c,[2]; phase III patients with cIAI and patients with NP vs healthy subjects,32.9%
same,θ2: V c,[2]; typical value,11.1 L
same,θ3: Q,[2]; typical value,5.44 L/h
same,θ4: V p,[2]; typical value,6.91 L
same,transporter substrate,[3],substrate
same,C T that restored the activity of ceftazidime,"[4]; avibactam concentration fixed, varying concentrations of ceftazidime",≤ 0.5 mg/L
same,C T sufficient to restore ceftazidime activity,"[4]; fixed concentrations of ceftazidime, varying concentrations of avibactam",0.15 to 0.28 mg/L
same,free plasma concentrations as % of total plasma concentrations,[5],92%
same,%fT > 1 mg/L associated with 2log10 reductions in bacterial density,[6],20–55%
same,%fT > 1 mg/L associated with stasis,[6],16–24%
same,transporter substrate,OAT3,substrate

# — article PMC6440567 (Clinical and Translational Science, 2018)
